Where a name gives a salt, the structure may show the parent alone. Read-outs that look alike come from different tables or passages of the source.
What was measured:
human ORL1 receptor = target: T1, human ORL1 receptor (Homo sapiens, UniProt P41146); experiment: ORL1-Receptor Binding Assay; details: [3H]nociceptin, human ORL1 receptor transfected HEK-293 cell membranes
T1 construct: purchased PerkinElmer; host or cells: HEK-293 cells transfected with human ORL1 receptor (membranes)
Method: The human ORL1 receptor transfected HEK-293 cell membranes (PerkinElmer) were incubated for 45 min at room temperature with 0.4 nM [^3H]nociceptin, 1.0 mg of wheat germ agglutinin(WGA)-coated SPA beads and various concentrations of test compounds in a final volume of 200 μL of 50 mM HEPES buffer pH 7.4 containing 10 mM MgCl2 and 1 mM EDTA. Non-specific binding (NSB) was determined by the addition of 1 μM unlabeled nociceptin. After the reaction, the assay plate was centrifuged at 1,000 rpm for 1 min and then the radioactivity was measured by WALLAC 1450 MicroBeta Trilux.
The compounds of the examples were tested in the ORL1 Receptor Binding assay.

HERG = target: T2, HERG (Homo sapiens, UniProt Q12809); type: binding
T2 construct: expressed in transfected cells; host or cells: HEK-293
T2 sequence (Q12809 whole entry): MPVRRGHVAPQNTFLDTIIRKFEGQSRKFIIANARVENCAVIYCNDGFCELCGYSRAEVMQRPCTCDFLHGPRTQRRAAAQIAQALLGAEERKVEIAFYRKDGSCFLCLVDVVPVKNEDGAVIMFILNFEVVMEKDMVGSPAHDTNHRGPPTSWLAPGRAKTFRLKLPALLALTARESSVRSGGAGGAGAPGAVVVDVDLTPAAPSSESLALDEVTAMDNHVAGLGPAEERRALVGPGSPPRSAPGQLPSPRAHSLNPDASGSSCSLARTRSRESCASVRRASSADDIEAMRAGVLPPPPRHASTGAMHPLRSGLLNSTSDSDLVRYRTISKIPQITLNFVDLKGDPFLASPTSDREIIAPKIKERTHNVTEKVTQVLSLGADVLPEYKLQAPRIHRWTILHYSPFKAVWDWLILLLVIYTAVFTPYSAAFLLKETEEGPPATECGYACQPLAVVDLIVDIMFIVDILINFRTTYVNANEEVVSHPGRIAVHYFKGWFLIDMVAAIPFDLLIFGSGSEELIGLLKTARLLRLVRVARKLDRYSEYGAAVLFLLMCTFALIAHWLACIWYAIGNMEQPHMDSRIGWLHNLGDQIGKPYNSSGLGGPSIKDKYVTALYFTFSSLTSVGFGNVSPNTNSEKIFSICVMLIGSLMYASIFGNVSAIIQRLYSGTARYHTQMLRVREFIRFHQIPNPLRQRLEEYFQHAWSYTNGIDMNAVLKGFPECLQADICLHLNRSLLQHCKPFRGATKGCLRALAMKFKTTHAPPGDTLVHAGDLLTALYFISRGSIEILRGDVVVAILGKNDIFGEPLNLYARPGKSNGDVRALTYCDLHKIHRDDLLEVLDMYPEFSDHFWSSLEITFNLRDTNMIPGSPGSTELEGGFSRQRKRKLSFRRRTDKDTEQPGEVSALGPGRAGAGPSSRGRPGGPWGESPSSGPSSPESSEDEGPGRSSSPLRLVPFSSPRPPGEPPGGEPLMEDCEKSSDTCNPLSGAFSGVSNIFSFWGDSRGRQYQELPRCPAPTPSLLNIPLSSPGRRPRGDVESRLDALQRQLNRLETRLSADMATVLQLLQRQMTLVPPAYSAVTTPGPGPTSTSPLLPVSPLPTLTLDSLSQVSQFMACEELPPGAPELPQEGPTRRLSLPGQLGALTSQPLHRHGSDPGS
Method: Cell paste of HEK-293 cells expressing the HERG product was suspended in 10-fold volume of 50 mM Tris buffer adjusted at pH 7.5 at 25° C. with 2 M HCl containing 1 mM MgCl2, 10 mM KCl. The cells were homogenized using a Polytron homogenizer (at the maximum power for 20 seconds) and centrifuged at 48,000 g for 20 minutes at 4° C. The pellet was resuspended, homogenized and centrifuged once more in the same manner. The resultant supernatant was discarded and the final pellet was resuspended (10-fold volume of 50 mM Tris buffer) and homogenized at the maximum power for 20 seconds. The membrane homogenate was aliquoted and stored at −80° C. until use. An aliquot was used for protein concentration determination using a Protein Assay Rapid Kit and ARVO SX plate reader (Wallac). […] Saturation was determined by incubating 20 μl of [^3H]-dofetilide and 160 μl of membrane homogenates (20-30 μg protein per well) for 60 min at room temperature in the absence or presence of 10 μM dofetilide at final concentrations (20 μl) for total or nonspecific binding, respectively. […] Receptor-bound radioactivity was quantified by liquid scintillation counting using Packard LS counter.
For the competition assay, compounds were diluted in 96 well polypropylene plates as 4-point dilutions in semi-log format. […] Receptor-bound radioactivity was quantified by counting Wallac MicroBeta plate counter. […]

T1 sequence (P41146 whole entry): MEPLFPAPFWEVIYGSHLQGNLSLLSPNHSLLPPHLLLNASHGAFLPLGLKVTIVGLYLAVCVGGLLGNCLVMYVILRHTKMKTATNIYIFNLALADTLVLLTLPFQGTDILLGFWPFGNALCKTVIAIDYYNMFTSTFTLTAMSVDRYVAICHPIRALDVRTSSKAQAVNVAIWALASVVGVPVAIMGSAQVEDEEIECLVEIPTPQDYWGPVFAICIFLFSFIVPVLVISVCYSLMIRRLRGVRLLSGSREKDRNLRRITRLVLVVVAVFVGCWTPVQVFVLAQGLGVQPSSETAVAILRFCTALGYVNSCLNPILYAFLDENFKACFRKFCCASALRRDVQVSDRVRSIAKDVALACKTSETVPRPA

Structure (SMILES)	Ki (human ORL1 receptor; read-out: Ki) [nM]	further results
CN(C)C(=O)C(CN1C2CCC1CC1(C2)OCCc2cc(F)ccc21)Cn1cccn1 (single isomer, unassigned; (-)) [Example 13, (−)-3-(6′-FLUORO-3′,4′-DIHYDRO-8H-SPIRO[8-AZABICYCLO[3.2.1]OCTANE-3,1′-ISOCHROMEN]-8-YL)-N,N-DIMETHYL-2-(1H-PYRAZOL-1-YLMETHYL)PROPANAMIDE]	1	
CN(C)C(=O)C(CN1C2CCC1CC1(C2)OCc2ccc(F)cc21)Cn1cccn1 (stereo not drawn) [Example 5, 3-(6′-FLUORO-3′H,8H-SPIRO[8-AZABICYCLO[3.2.1]OCTANE-3,1′-[2]BENZOFURAN]-8-YL)-N,N-DIMETHYL-2-(1H-PYRAZOL-1-YLMETHYL)P[…], CITRATE]	3.6	
CN(C)C(=O)C(CN1C2CCC1CC1(C2)OCCc2ccccc21)Cn1cccn1 (stereo not drawn) [Example 10, 3-(3′,4′-DIHYDRO-8H-SPIRO[8-AZABICYCLO[3.2.1]OCTANE-3,1′-ISOCHROMEN]-8-YL)-N,N-DIMETHYL-2-(1H-PYRAZOL-1-YLMETHYL)P[…], CITRATE]	7.2	
CN1C(=O)C(CN2CCC3(CCc4ccccc43)CC2)Cc2ccccc21 (stereo not drawn) [Compound (I)]		activity in the dofetilide binding assay (HERG): potent activity
CN(C)C(=O)C(CN1C2CCC1CC1(C2)OCc2ccc(F)cc21)Cn1cccn1 (single isomer, unassigned) [Example 8, 3-(6′-FLUORO-3′H,8H-SPIRO[8-AZABICYCLO[3.2.1]OCTANE-3,1′-[2]BENZOFURAN]-8-YL)-N,N-DIMETHYL-2-(1H-PYRAZOL-1-YLMETHYL)P[…], CITRATE]	2.6	
CN(C)C(=O)C(CN1C2CCC1CC1(C2)OCCc2cc(F)ccc21)Cn1cccn1 (stereo not drawn) [Example 11, 3-(6′-FLUORO-3′,4′-DIHYDRO-8H-SPIRO[8-AZABICYCLO[3.2.1]OCTANE-3,1′-ISOCHROMEN]-8-YL)—N,N-DIMETHYL-2-(1H-PYRAZOL-1-YLMETHYL)P[…], CITRATE]	1.3	
CN(C)C(=O)C(Cc1cscn1)CN1C2CCC1CC1(C2)OCc2ccccc21 (stereo not drawn) [Example 1, N,N-DIMETHYL-3-(3′H,8H-SPIRO[8-AZABICYCLO[3.2.1]OCTANE-3,1′-[2]BENZOFURAN]-8-YL)-2-(1,3-THIAZOL-4-YLMETHYL)P[…], CITRATE]		Ki (human ORL1 receptor; Ki): 1.8 nM
CN(C)C(=O)C(CN1C2CCC1CC1(C2)OCc2ccc(F)cc21)Cn1cccn1 (single isomer, unassigned; (-)) [Example 7, (−)-3-(6′-FLUORO-3′H,8H-SPIRO[8-AZABICYCLOr3.2.1]OCTANE-3,1′-[2]BENZOFURAN]-8-YL)-N,N-DIMETHYL-2-(1H-PYRAZOL-1-YLMETHYL)PROPANAMIDE]	3.6	
CN(C)C(=O)C(CN1C2CCC1CC1(C2)OCc2ccccc21)Cn1cccn1 (stereo not drawn) [Example 2, N,N-DIMETHYL-3-(1H-PYRAZOL-1-YL)-2-(3′H,8H-SPIRO[8-AZABICYCLO[3.2.1]OCTANE-3,1′-[2]BENZOFURAN]-8-YLMETHYL)P[…], CITRATE]	2.4	
CN(C)C(=O)C(CN1C2CCC1CC1(C2)OCCc2cc(F)ccc21)Cn1cccn1 (single isomer, unassigned; (+)) [Example 12, (+)-3-(6′-FLUORO-3′,4′-DIHYDRO-8H-SPIRO[8-AZABICYCLO[3.2.1]OCTANE-3,1′-ISOCHROMEN]-8-YL)-N,N-DIMETHYL-2-(1H-PYRAZOL-1-YLMETHYL)P[…], CITRATE]	140	
CN(C)C(=O)C(CN1C2CCC1CC1(C2)OCc2ccccc21)Cn1cccn1 (single isomer, unassigned; (+)) [Example 3, (+)-N,N-DIMETHYL-3-(1H-PYRAZOL-1-YL)-2-(3′H,8H-SPIRO[8-AZABICYCLO[3.2.1]OCTANE-3,1′-[2]BENZOFURAN]-8-YLMETHYL)P[…], CITRATE]	2	
CN(C)C(=O)C(Cc1cscn1)CN1C2CCC1CC1(C2)OCc2ccc(F)cc21 (stereo not drawn) [Example 9, 3-(6′-FLUORO-3′H,8H-SPIRO[8-AZABICYCLO[3.2.1]OCTANE-3,1′-[2]BENZOFURAN]-8-YL)-N,N-DIMETHYL-2-(1,3-THIAZOL-4-YLMETHYL) P[…]]	3.8	
